Values after ≈ are worked out from the molar mass of the structure shown. Like-named read-outs stand apart in the source and are kept apart here.
How the values were obtained:
Caco-2 monolayers = test: Bi-directional permeability, CACO-2; assay type: in vitro ADME; conditions: for Papp B-A / Papp A-B Ratio: Caco-2 efflux ratio; for Absorption Potential: classification from Papp(A-to-B)
Method: (§1) Caco-2 monolayers were grown to confluence on collagen-coated, microporous, polycarbonate membranes in 12-well Costar Transwell plates. Details of the plates and their certification are shown below. The permeability assay buffer was Hank's Balanced Salt Solution containing 10 mM HEPES and 15 mM glucose at a pH of 7.0±0.2. The dosing solution concentration was 10 μM in assay buffer. At each time point, 1 and 2 hours, a 200-μL aliquot was taken from the receiver chamber and replaced with fresh assay buffer. Cells were dosed on the apical side (A-to-B) or basolateral side (B-to-A) and incubated at 37° C. with 5% CO2 and 90% relative humidity. Each determination was performed in duplicate. The important experimental parameters are outlined below. Permeability through a cell-free (blank) membrane was studied to determine non-specific binding and free diffusion of the compound through the device. Lucifer yellow flux was also measured for each monolayer after being subjected to the test compounds to ensure no damage was inflicted to the cell monolayers during the flux period.
(§2) All samples were assayed by LC/MS using electrospray ionization. Typical LC/MS conditions are as follows:
(§3) dCr/dt is the cumulative concentration in the receiver compartment versus time in M s^−1.
(§4) Vr is the volume of the receiver compartment in cm^3.
(§5) Vd is the volume of the donor compartment in cm^3.
(§6) A is the area of the cell monolayer (1.13 cm^2 for 12-well Transwell).
(§7) C0 is the concentration of the dosing solution in M.
(§8) Cr^final is the cumulative receiver concentration in M at the end of the incubation period.
(§9) Cd^final is the concentration of the donor in M at the end of the incubation period.

[1] = Aqueous equilibrium solubility in pH 7.4 buffer; conditions: for Solubility pH 7.4: pH 7.4 aqueous buffer, room temperature, equilibrium; for solubility: pH 7.4 aqueous phosphate buffer, pH 7.4, aqueous buffer, thermodynamic from solid
Method: Equilibrium solubility was measured in pH 7.4 aqueous buffer. The buffer was prepared by adjusting the pH of a 0.07 M solution of NaH2PO4 to pH 7.4 with 10 N NaOH. […] At least 1 mg of powder was combined with 1 mL of buffer to make >1 mg/mL mixture. These samples were shaken for ≧2 hours and left to stand overnight at room temperature. The samples were then filtered through a 0.45-μm Nylon syringe filter that was first saturated with the sample. The filtrate was sampled twice, consecutively. The filtrate was assayed by HPLC against standards prepared in methanol.

[2] = Determination of LC Log P (experimental); assay type: physicochemical
Method: Liquid chromatography retention times (RT) are measured for each substance using the conditions described below. A linear equation is derived relating RT to log P is developed from the data for the log P standards. The log P for the test compound is calculated from the log P/retention time equation.

[3] = Bi-directional permeability, CACO-2; assay type: in vitro ADME; conditions: for efflux ratio at 2 h, 10 μM: Caco-2, pH 7
Method: as §1, §2, §3, §4, §5, §6, §7, §8, §9

[4] = Determination of water solubility (de-ionized water, LC/MS); conditions: kinetic from dmso stock
Method: Aqueous solutions are prepared as follows in triplicate: 50 μl of a 10,000 ppm solution (2,000 μg of solid dissolved in 200 μl of methanol) of the substrate in methanol or DMSO is added to 1 mL of de-ionized water in a 2 dram or smaller vial with magnetic stirring. Stirring is continued overnight at ambient temperature. The slurry is taken up into a syringe with a luer tip. The contents are passed through a new 13 mm 0.2 ρM Acrodisc filter (tuffryn or glass fiber) into an autosampler bottle. For preparation of calibration standard solutions: dilutions of the 10,000 ppm solution were prepared at 10, 5, 1, 0.5, and 0.2 ppm. […] For more soluble materials, dilution of the samples into this range is preferable to increasing the calibration range because the non-linearity of the response results in less useful calibration curves. However a shift in the range of calibration standards is required for very insoluble compounds.
Chromatography of the samples was then preformed. For most diacylhydrazines the following conditions were adequate for the measurement. Other columns and gradients may be substituted as appropriate.
Analysis of the test samples is conducted as follows: Each solubility replicate is analyzed in duplicate. […] Standard curves are obtained from duplicate injections of the standards. The concentration of the substrate is determined by calculation from the equation relating concentration and response.

[5] = tested on: mutated ecdysone receptor-based gene switch; test: In vivo SEAP induction, ligand by IP injection; set-up: species or system C57BL/6 mouse; conditions: for Secreted Alkaline Phosphatase (percentage of GS ™-E ligand induction) Day 2 / Secreted Alkaline Phosphatase (percentage of GS ™-E ligand induction) Day 3 / Secreted Alkaline Phosphatase (percentage of GS ™-E ligand induction) Day 11: mouse serum; for Secreted Alkaline Phosphatase (percentage of GS ™-E ligand induction) Day 2: IP 2.6 μmol ligand 3 days after electroporation, day 2 after ligand; for Secreted Alkaline Phosphatase (percentage of GS ™-E ligand induction) Day 3 / Secreted Alkaline Phosphatase (percentage of GS ™-E ligand induction) Day 11: IP 2.6 μmol ligand; for Secreted Alkaline Phosphatase (percentage of GS ™-E ligand induction) Day 3: day 3 after ligand; for Secreted Alkaline Phosphatase (percentage of GS ™-E ligand induction) Day 11: day 11 after ligand
How it was run: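 Gene switch plasmids (receptor under CMV promoter) electroporated into quadriceps of C57BL/6 mice; 3 days later ligand given IP at 2.6 μmol or 26 nmol in 50 μL DMSO per mouse. Serum SEAP measured by chemiluminescence 2-11 days after dosing, averaged over four animals, expressed as % of GS™-E ligand induction.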

[6] = classification from Papp(B-to-A) and ratio
[7] = Caco-2, pH 7, Percent Recovery Blank
[8] = Caco-2, pH 7, cell-free (blank) membrane, 10 μM, read-out: Papp Blank
[9] = human, Caco-2, pH 7, Caco-2, 10 μM, replicate 2, read-out: Papp, B-to-A Rep. 2
[10] = human, Caco-2, pH 7, Papp, A-to-B Rep. 1
[11] = human, Caco-2, pH 7, Papp, B-to-A Avg
[12] = human, Caco-2, pH 7, Papp, B-to-A Rep. 1
[13] = human, Caco-2, pH 7, Percent Recovery A-to-B
[14] = human, Caco-2, pH 7, Percent Recovery B-to-A
[15] = from LC retention time against log P standards, read-out: LC LogP (exp)
[16] = human, Caco-2, pH 7, Papp, A-to-B Avg
[17] = human, Caco-2, pH 7, Papp, A-to-B Rep. 2

Row | SMILES | Papp Blank (Caco-2 monolayers; Caco-2) | Papp, A-to-B Avg (Caco-2 monolayers; Caco-2) | Papp, A-to-B Rep. 1 (Caco-2 monolayers; Caco-2) | Papp, A-to-B Rep. 2 (Caco-2 monolayers; Caco-2) | Papp, B-to-A Avg (Caco-2 monolayers; Caco-2) | Papp, B-to-A Rep. 1 (Caco-2 monolayers; Caco-2) | Papp, B-to-A Rep. 2 (Caco-2 monolayers; Caco-2) | Significant Efflux (Caco-2 monolayers; Caco-2) | Papp B-A / Papp A-B Ratio (Caco-2 monolayers) | Solubility pH 7.4 [1] | chromatographic logP [2, 15] | solubility kinetic [4] [µM] | Secreted Alkaline Phosphatase (percentage of GS ™-E ligand induction) Day 2 [5] | Secreted Alkaline Phosphatase (percentage of GS ™-E ligand induction) Day 3 [5] | Secreted Alkaline Phosphatase (percentage of GS ™-E ligand induction) Day 11 [5] | also measured
1 | COc1cnccc1C(=O)N(NC(=O)c1cccc(O)c1C)C(C)(C)C [RG-115595] | 33.2 10^−6 cm/s | 19.2 10^−6 cm/s | 19.6 10^−6 cm/s | 18.9 10^−6 cm/s | 30.7 10^−6 cm/s | 29.8 10^−6 cm/s | 31.7 10^−6 cm/s | No | 1.6 | 0.026 mg/mL |  |  |  |  |  | 
2 | COc1cccc(C(=O)NN(C(=O)c2cc(C)cc(C)c2)C(C)(C)C)c1C [RG-102398] |  |  |  |  |  |  |  |  |  |  |  |  |  |  |  | logP ([2]; diacylhydrazine log P standards (log P known experimentally)): 3.7; Absorption Potential (Caco-2 monolayers): High (Papp(A-to-B) ≧ 1.0 × 10^−6 cm/s High); Significant Efflux (Caco-2 monolayers; [6]): No; recovery at 2 h, 10 μM [3, 7]: 94%; Papp at 2 h, 10 µM [3, 8]: 34.7 ×10⁻⁶ cm/s; efflux ratio at 2 h, 10 μM ([3]; human): 1; Papp A→B at 2 h, 10 µM ([3]; human, Caco-2, pH 7, Caco-2, 10 μM, average of 2 replicates, read-out: Papp, A-to-B Avg): 26.9 ×10⁻⁶ cm/s; Papp A→B at 2 h, 10 µM ([3]; human, Caco-2, pH 7, Caco-2, 10 μM, replicate 2, read-out: Papp, A-to-B Rep. 2): 26.8 ×10⁻⁶ cm/s; Papp B→A at 2 h, 10 µM [3, 9]: 28.2 ×10⁻⁶ cm/s; Papp A→B at 2 h, 10 µM [3, 10]: 27 ×10⁻⁶ cm/s; Papp B→A at 2 h, 10 µM [3, 11]: 27.1 ×10⁻⁶ cm/s; Papp B→A at 2 h, 10 µM [3, 12]: 25.9 ×10⁻⁶ cm/s; recovery at 2 h, 10 μM [3, 13]: 85%; recovery at 2 h, 10 μM [3, 14]: 90%; solubility [1]: ≤ 0.2 µg/mL
3 | COc1cc(C(=O)N(NC(=O)c2ccc3c(c2C)OCCO3)C(C)(C)C)cc(OC)c1C [RG-115637, 5-Methyl-2,3-dihydro-benzo[1,4]dioxine-6-carboxylic acid N′-tert-butyl-N′-(3,5-dimethoxy-4-methyl-benzoyl)-hydrazide] |  |  |  |  |  |  |  |  |  |  | 3.54 | 13.7 (≈ 6.06 µg/mL) | 12 percentage of GS ™-E ligand induction | 7 percentage of GS ™-E ligand induction | 0 percentage of GS ™-E ligand induction | 
4 | Cc1c(C(=O)NN(C(=O)c2cc(F)c(F)c(F)c2)C(C)(C)C)ccc2c1CCCO2 [RG-115575, 3,4,5-Trifluoro-benzoic acid N-tert-butyl-N′-(5-methyl-chroman-6-carbonyl)-hydrazide] |  |  |  |  |  |  |  |  |  |  | 4.1 | 21.6 (≈ 9.08 µg/mL) | 74 percentage of GS ™-E ligand induction | 78 percentage of GS ™-E ligand induction | 69 percentage of GS ™-E ligand induction | 
5 | Cc1cc(C)cc(C(=O)N(NC(=O)c2ccc3c(c2C)OCCO3)C(C)(C)C)c1 [RG-102317, N-(5-methyl-1,4-benzodioxan-6-carbonyl)-N′-(tert-butyl)-N′-(3,5-dimethylbenzoyl)hydrazine] |  |  |  |  |  |  |  | No |  |  |  |  | 112 percentage of GS ™-E ligand induction | 116 percentage of GS ™-E ligand induction | 61 percentage of GS ™-E ligand induction | chromatographic logP [2]: 3.6; Papp at 2 h, 10 µM ([3]; Caco-2, pH 7, Papp Blank): 27.9 ×10⁻⁶ cm/s; recovery at 2 h, 10 μM ([3]; Caco-2, pH 7, cell-free (blank) membrane, 10 μM, read-out: Percent Recovery Blank): 87%; efflux ratio at 2 h, 10 μM ([3]; human): 0.8; recovery at 2 h, 10 μM ([3]; human, Caco-2, pH 7, Caco-2, apical-to-basolateral, 10 μM, read-out: Percent Recovery A-to-B): 91%; recovery at 2 h, 10 μM ([3]; human, Caco-2, pH 7, Caco-2, basolateral-to-apical, 10 μM, read-out: Percent Recovery B-to-A): 86%; Papp A→B at 2 h, 10 µM [3, 16]: 28 ×10⁻⁶ cm/s; Papp A→B at 2 h, 10 µM [3, 10]: 28.6 ×10⁻⁶ cm/s; Papp A→B at 2 h, 10 µM [3, 17]: 27.3 ×10⁻⁶ cm/s; Papp B→A at 2 h, 10 µM [3, 11]: 21.1 ×10⁻⁶ cm/s; Papp B→A at 2 h, 10 µM [3, 12]: 21 ×10⁻⁶ cm/s; Papp B→A at 2 h, 10 µM ([3]; human, Caco-2, pH 7, Papp, B-to-A Rep. 2): 21.2 ×10⁻⁶ cm/s
6 | CC(=O)c1ccc(C(=O)NN(C(=O)c2cc(C(=O)O)cc(C(=O)O)c2)C(C)(C)C)cc1 [RG-100150] | 36.9 10^−6 cm/s | 0.18 10^−6 cm/s | 0.19 10^−6 cm/s | 0.18 10^−6 cm/s | 0.33 10^−6 cm/s | 0.33 10^−6 cm/s | 0.34 10^−6 cm/s | No |  | ≧1.0 mg/mL |  |  |  |  |  | 
7 | CCc1c(C(=O)NN(C(=O)c2ccc(F)c(C(F)(F)F)c2)C(C)(C)C)ccc2c1OCCO2 [RG-115280] | 1.88 10^−6 cm/s | 1.27 10^−6 cm/s | 1.24 10^−6 cm/s | 1.30 10^−6 cm/s | 1.49 10^−6 cm/s | 1.50 10^−6 cm/s | 1.48 10^−6 cm/s | No | 1.2 | 0.0012 mg/mL |  |  |  |  |  | 
8 | CCCC(N(NC(=O)c1cccc(OC)c1C)C(=O)c1cc(C)cc(C)c1)C(C)(C)C (stereo not shown) [RG-115823] | 24.2 10^−6 cm/s | 17.6 10^−6 cm/s | 17.4 10^−6 cm/s | 17.8 10^−6 cm/s | 17.1 10^−6 cm/s | 18.8 10^−6 cm/s | 15.4 10^−6 cm/s | No | 1.0 | 0.0003 mg/mL |  |  | 129 percentage of GS ™-E ligand induction | 183 percentage of GS ™-E ligand induction | 2,652 percentage of GS ™-E ligand induction | Secreted Alkaline Phosphatase Day 2 ([5]; IP 26 nmol ligand, day 2): 3,788 ng/ml mouse sera; Secreted Alkaline Phosphatase Day 3 ([5]; IP 26 nmol ligand, day 3): 2,705 ng/ml mouse sera; Secreted Alkaline Phosphatase Day 7 ([5]; IP 26 nmol ligand, day 7): 373 ng/ml mouse sera
9 | CCc1ccc(C(=O)NN(C(=O)c2cc(C)cc(C)c2)C(C)(C)C)cc1 [RG-102125] |  |  |  |  |  |  |  |  |  |  |  |  |  |  |  | Absorption Potential (Caco-2 monolayers): High (Papp(A-to-B) ≧ 1.0 × 10^−6 cm/s High); Significant Efflux (Caco-2 monolayers; [6]): No; recovery at 2 h, 10 μM [3, 7]: 62%; Papp at 2 h, 10 µM [3, 8]: 21.9 ×10⁻⁶ cm/s; Papp B→A at 2 h, 10 µM ([3]; human, Caco-2, pH 7, Caco-2, 10 μM, average of 2 replicates, read-out: Papp, B-to-A Avg): 20.2 ×10⁻⁶ cm/s; Papp A→B at 2 h, 10 µM ([3]; human, Caco-2, pH 7, Caco-2, 10 μM, replicate 1, read-out: Papp, A-to-B Rep. 1): 25.7 ×10⁻⁶ cm/s; Papp B→A at 2 h, 10 µM ([3]; human, Caco-2, pH 7, Caco-2, 10 μM, replicate 1, read-out: Papp, B-to-A Rep. 1): 20.7 ×10⁻⁶ cm/s; Papp B→A at 2 h, 10 µM [3, 9]: 19.7 ×10⁻⁶ cm/s; Papp A→B at 2 h, 10 µM [3, 16]: 26 ×10⁻⁶ cm/s; Papp A→B at 2 h, 10 µM [3, 17]: 26.3 ×10⁻⁶ cm/s; recovery at 2 h, 10 μM [3, 13]: 84%; recovery at 2 h, 10 μM [3, 14]: 63%; solubility [1]: 0.6 µg/mL (≈ 1.7 µM)
10 | COc1cc(C(=O)N(NC(=O)c2ccc3c(c2C)OCCO3)C(C)(C)C)cc(OC)c1O [RG-115009, 4-Hydroxy-3,5-dimethoxy-benzoic acid N-tert-butyl-N′-(5-methyl-2,3-dihydro-benzo[1,4]dioxine-6-carbonyl)-hydrazide] |  |  |  |  |  |  |  |  |  |  | 1.9 | 30.4 (≈ 13.5 µg/mL) | 4 percentage of GS ™-E ligand induction | 3 percentage of GS ™-E ligand induction |  | 
